{"source": "paper PMC7796187", "about": "“New Bioactive Peptides Identified from a Tilapia Byproduct Hydrolysate Exerting Effects on DPP-IV Activity and Intestinal Hormones Regulation after Canine Gastrointestinal Simulated Digestion” (Molecules, 2020)", "note": "Where a SMILES comes first, the peptide text is derived from it. Where no end group is shown, it is not given here.", "data": [{"test_system": "STC-1 cells", "assay": "not given", "design": "method as in PMID 32516710", "settings": "peptides from egg white SGID intestinal digest; cited from earlier work", "values": [{"compound": "VLLPD", "CCK secretion stimulation": "able to stimulate CCK secretion in STC-1 cells"}, {"compound": "VLLPDEVSGL [peptide from egg white SGID intestinal digest]", "CCK secretion stimulation": "able to stimulate CCK secretion in STC-1 cells"}]}, {"test_system": "murine GLUTag cells", "assay": "not given", "design": "method as in earlier work", "settings": "α-actinin-2 sequences; cited from earlier work", "values": [{"compound": "ASDKPYIL [α-actinin-2 derived peptide]", "GLP-1 secretion stimulation": "also active"}, {"compound": "KPYIL", "GLP-1 secretion stimulation": "able to stimulate the GLP-1 secretion in murine GLUTag cells"}]}, {"test_system": "EECs", "assay": "not given", "design": "method as in PMID 28460928, doi:10.1016/j.jff.2017.06.047", "settings": "hemorphins from bovine hemoglobin digestion; cited from earlier work", "values": [{"compound": "LLVVYPWT [hemorphin released during bovine hemoglobin digestion]", "CCK secretion stimulation": "CCK and GLP-1 secretion stimulating peptides"}, {"compound": "LVVYPWT [hemorphin released during bovine hemoglobin digestion]", "CCK secretion stimulation": "CCK and GLP-1 secretion stimulating peptides"}, {"compound": "VVYPWT", "CCK secretion stimulation": "CCK and GLP-1 secretion stimulating peptides"}, {"compound": "VVYPWTQRF [hemorphin released during bovine hemoglobin digestion]", "CCK secretion stimulation": "CCK and GLP-1 secretion stimulating peptides"}]}, {"test_system": "EECs", "assay": "not given", "settings": "cited from earlier work", "values": [{"compound": "AAAA", "GLP-1 secretion stimulation": "able to stimulate GLP-1 secretion"}, {"compound": "GGGG", "GLP-1 secretion stimulation": "able to stimulate GLP-1 secretion"}, {"compound": "GPVRGPFPIIV [literature GLP-1 stimulating peptide]", "GLP-1 secretion stimulation": "able to stimulate GLP-1 secretion"}, {"compound": "GWGG", "GLP-1 secretion stimulation": "able to stimulate GLP-1 secretion"}, {"compound": "LGG", "GLP-1 secretion stimulation": "able to stimulate GLP-1 secretion"}]}, {"test_system": "EECs", "assay": "not given", "settings": "egg white protein digest peptides; cited from earlier work", "values": [{"compound": "PFL", "GLP-1 secretion stimulation": "able to stimulate GLP-1 secretion"}, {"compound": "RVASMASEKM [peptide from egg white protein digest]", "GLP-1 secretion stimulation": "GLP-1 secretagogue"}]}, {"test_system": "EECs", "assay": "not given", "settings": "hemorphins from bovine hemoglobin digestion; cited from earlier work", "remark": "another data set of the same source", "values": [{"compound": "LLVVYPWT [hemorphin released during bovine hemoglobin digestion]", "GLP-1 secretion stimulation": "CCK and GLP-1 secretion stimulating peptides"}, {"compound": "LVVYPWT [hemorphin released during bovine hemoglobin digestion]", "GLP-1 secretion stimulation": "CCK and GLP-1 secretion stimulating peptides"}, {"compound": "VVYPWT", "GLP-1 secretion stimulation": "CCK and GLP-1 secretion stimulating peptides"}, {"compound": "VVYPWTQRF [hemorphin released during bovine hemoglobin digestion]", "GLP-1 secretion stimulation": "CCK and GLP-1 secretion stimulating peptides"}]}, {"test_system": "EECs", "assay": "not given", "settings": "sequences from bovine hemoglobin intestinal digest; cited from earlier work", "values": [{"compound": "ANVST", "GLP-1 secretion stimulation": "able to stimulate the secretion of GLP-1"}, {"compound": "KAAVT", "GLP-1 secretion stimulation": "able to stimulate the secretion of GLP-1"}, {"compound": "TKAVEH", "GLP-1 secretion stimulation": "able to stimulate the secretion of GLP-1"}, {"compound": "YGAE", "GLP-1 secretion stimulation": "able to stimulate the secretion of GLP-1"}]}, {"test_system": "STC-1 cells", "assay": "Active GLP-1 secretion in STC-1 cells, radioimmunoassay of supernatant", "format": "cell-based", "settings": "1 mM, 2 h, versus buffer control", "protocol": "The Caco-2 cell line was purchased from Sigma-Aldrich (Villefranche-sur-Saône, France) and the STC-1 cell line was a grateful gift received from Corinne Grangette (Univ. Lille, CNRS, Inserm, CHU Lille, Institut Pasteur de Lille, U1019-UMR 8204-CIIL, France). Cells were grown in flask of 75 cm^2 at 37 °C, 5% CO2 atmosphere in DMEM supplemented with 4.5 g L^−1 of glucose, 10% of fetal bovine serum, 100 U mL^−1 of penicillin, 100 µg mL^−1 of streptomycin and 2 mM of L-glutamine. Caco-2 and STC-1 cells were weekly and twice a week subcultured, respectively. All cells used in this study were between the 40 and the 50 passages for Caco-2 cells and between the 10 and 30 passages for STC-1 cells.\nWhen 80–90% confluence was reached, STC-1 cells were trypsinized and seeded at a density of 40,000 cells/well in 24-wells culture plates (ThermoFisher Scientific, Saint Aubin, France) allowing to reach 60–80% confluence. Cell culture medium was removed from each well and cells were washed with phosphate saline buffer (PBS, 10 mM, pH 7.4). 250 µL of digests (2 to 10 mg mL^−1) or synthetic peptides (1 mM) diluted in Hepes buffer (4.5 mM KCl, 1.2 mM CaCl2, 140 mM NaCl and 20 mM Hepes, pH 7.4) were then added. Hepes buffer was used as a negative control. […]", "values": [{"compound": "ELLK", "active GLP-1 release stimulation by synthetic peptide": "did not lead to GLP-1 secretion"}, {"compound": "LKPT", "active GLP-1 release stimulation by synthetic peptide": "able to significantly stimulate active-GLP-1 release"}]}, {"test_system": "DPP-IV", "assay": "In vitro (biochemical) DPP-IV inhibitory activity test", "settings": "synthetic peptides identified in basolateral side", "units": {"IC50": "µM"}, "values": [{"compound": "C[C@@H](O)[C@H](NC(=O)[C@H](CC(=O)O)NC(=O)[C@@H](N)CCC(=O)O)C(=O)N[C@@H](Cc1ccc(O)cc1)C(=O)O", "note": "[EDTY] (H-EDTY-OH; N-terminus and C-terminus assumed)", "IC50": "> 2500"}, {"compound": "C[C@@H](O)[C@H](NC(=O)[C@H](Cc1ccc(O)cc1)NC(=O)[C@H](CC(=O)O)NC(=O)[C@@H](N)CCC(=O)O)C(=O)O", "note": "[EDYT] (H-EDYT-OH; N-terminus and C-terminus assumed)", "IC50": "> 2500"}, {"compound": "VADTMEVV", "IC50": 603}]}, {"molecular_target": "T1, Caco-2 DPP-IV activity (Homo sapiens, UniProt P27487)", "T1 construct": "In situ method using confluent Caco-2 cells described by Caron et al. was slightly modified and used to study DPP-IV activity; host or cells: Caco-2 cells, live and confluent, 7 days after seeding", "T1 sequence (P27487 whole entry)": "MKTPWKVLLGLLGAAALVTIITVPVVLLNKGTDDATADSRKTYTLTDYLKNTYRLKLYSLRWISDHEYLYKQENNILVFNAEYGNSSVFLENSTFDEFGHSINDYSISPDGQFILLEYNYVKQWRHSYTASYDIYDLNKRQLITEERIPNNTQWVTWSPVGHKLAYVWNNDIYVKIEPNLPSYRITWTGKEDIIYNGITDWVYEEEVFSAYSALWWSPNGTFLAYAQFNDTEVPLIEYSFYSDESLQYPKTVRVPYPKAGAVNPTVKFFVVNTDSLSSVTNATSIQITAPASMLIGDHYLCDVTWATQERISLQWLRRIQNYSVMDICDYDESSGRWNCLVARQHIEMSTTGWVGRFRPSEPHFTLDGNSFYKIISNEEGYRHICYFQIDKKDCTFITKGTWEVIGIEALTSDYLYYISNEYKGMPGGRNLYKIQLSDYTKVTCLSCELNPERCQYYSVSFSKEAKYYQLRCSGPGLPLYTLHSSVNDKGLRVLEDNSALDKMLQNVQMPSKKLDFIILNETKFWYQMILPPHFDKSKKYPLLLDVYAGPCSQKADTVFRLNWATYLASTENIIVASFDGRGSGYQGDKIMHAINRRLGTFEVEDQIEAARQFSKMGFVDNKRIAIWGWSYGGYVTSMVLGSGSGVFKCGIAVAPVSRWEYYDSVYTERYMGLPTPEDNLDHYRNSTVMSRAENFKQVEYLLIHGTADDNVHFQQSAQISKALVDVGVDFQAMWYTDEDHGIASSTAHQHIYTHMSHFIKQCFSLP", "assay": "In situ DPP-IV activity inhibition using live confluent Caco-2 cells (Gly-Pro-AMC substrate)", "format": "cell-based", "settings": "synthetic peptides identified in basolateral side, read-out: In Situ IC50 (DPP-IV inhibitory activity)", "protocol": "Cells were grown in flask of 75 cm^2 at 37 °C, 5% CO2 atmosphere in DMEM supplemented with 4.5 g L^−1 of glucose, 10% of fetal bovine serum, 100 U mL^−1 of penicillin, 100 µg mL^−1 of streptomycin and 2 mM of L-glutamine. Caco-2 and STC-1 cells were weekly and twice a week subcultured, respectively. All cells used in this study were between the 40 and the 50 passages for Caco-2 cells and between the 10 and 30 passages for STC-1 cells.\nIn situ method using confluent Caco-2 cells described by Caron et al. was slightly modified and used to study DPP-IV activity. A 1 mM (Gly-Pro-AMC) substrate solution, the digests and the synthetic peptides dilutions were prepared in phosphate saline buffer pH 7.4 (PBS). Briefly, after 7 days of growth, Caco-2 cells were trypsinized and seeded at a density of 8000 cells/well in 96-well optical black plates (Nunc, ThermoFisher Scientific, Rochester, NY, USA). After 7 days, culture media were removed from wells and the cells were washed with 100 µL of PBS buffer (pH 7.4). […] After 5 min of incubation at 37 °C, 50 µL of (Gly-Pro-AMC) substrate solution were added to each well. Fluorescence was recorded every 2 min for 1 h at 37 °C using a Xenius XC spectrofluorometer (Safas Monaco, Monaco). Excitation wavelength was set to […] while the emission wavelength was of 480 nm. The percentage of the DPP-IV activity inhibition was defined as the percentage of DPP-IV activity inhibited by a given concentration of digest or diprotin A (commercial DPP-IV peptide inhibitor) as positive control compared with control buffer response. […] IC50 was expressed in mg mL^−1 or in mM.", "units": {"IC50": "µM"}, "values": [{"compound": "CC(C)C[C@H](NC(=O)[C@@H]1CCCN1C(=O)[C@@H](N)CC(=O)O)C(=O)N[C@H](C(=O)O)C(C)C", "note": "[DPLV] (H-DPLV-OH)", "IC50": "> 2500"}, {"compound": "C[C@@H](O)[C@H](NC(=O)[C@H](CC(=O)O)NC(=O)[C@@H](N)CCC(=O)O)C(=O)N[C@@H](Cc1ccc(O)cc1)C(=O)O", "note": "[EDTY] (H-EDTY-OH; N-terminus and C-terminus assumed)", "IC50": "> 2500"}, {"compound": "C[C@@H](O)[C@H](NC(=O)[C@H](Cc1ccc(O)cc1)NC(=O)[C@H](CC(=O)O)NC(=O)[C@@H](N)CCC(=O)O)C(=O)O", "note": "[EDYT] (H-EDYT-OH; N-terminus and C-terminus assumed)", "IC50": "> 2500"}, {"compound": "CC(C)C[C@H](NC(=O)[C@H](CC(=O)O)NC(=O)[C@@H]1CCCN1)C(=O)N[C@H](C(=O)O)C(C)C", "note": "[PDLV] (H-PDLV-OH)", "IC50": "> 2500"}, {"compound": "CSSGGY [CSSGGY]", "IC50": 2160}, {"compound": "CSSGK [CSSGK]", "IC50": "> 2500"}, {"compound": "VAPEEHPT", "IC50": 2270}, {"compound": "VDAGAP [VDAGAP]", "IC50": "> 2500"}]}]}
